From ChEMBL document CHEMBL3885881, “DrugMatrix”

Species on record: Rattus norvegicus
Assay: DrugMatrix - Regimen: Daily Repeat
Format: toxicity, organism-based, Sprague-Dawley
Set-up: regimen Daily Repeat, gender Male, age 6-8 weeks
Details: in vivo, po, route oral GAVAGE, vehicle 100 % WATER; for ABSOLUTE BASOPHIL / ABSOLUTE EOSINOPHIL / ABSOLUTE LYMPHOCYTE / ABSOLUTE MONOCYTE / ABSOLUTE SEGMENTED NEUTROPHIL / BASOPHIL / EOSINOPHIL / ERYTHROCYTE COUNT / HEMATOCRIT / HEMOGLOBIN / LEUKOCYTE COUNT / LYMPHOCYTE / MEAN CORPUSCULAR HEMOGLOBIN / MEAN CORPUSCULAR HEMOGLOBIN CONCENTRATION / MEAN CORPUSCULAR VOLUME / MONOCYTE / NEUTROPHIL / NUCLEATED RED BLOOD CELLS / PLATELET COUNT: tissue Blood; for ALANINE AMINOTRANSFERASE / ALBUMIN / ALKALINE PHOSPHATASE / ASPARTATE AMINOTRANSFERASE / BLOOD UREA NITROGEN / CARBON DIOXIDE / CHLORIDE / CHOLESTEROL / CREATINE PHOSPHOKINASE / CREATININE / GLUCOSE / LACTATE DEHYDROGENASE / LIPASE / PHOSPHORUS / POTASSIUM / SODIUM / TOTAL BILIRUBIN / TOTAL PROTEIN / URIC ACID: tissue Plasma
[1] = 10 mg/kg, 120 h, dose level Low, time 5 day
[2] = 280 mg/kg, 72 h, dose level High, time 3 day
[3] = 280 mg/kg, 120 h, dose level High, time 5 day

NNc1nncc2ccccc12 [HYDRALAZINE]
ABSOLUTE BASOPHIL [1]: 0 CELLS/uL
ABSOLUTE EOSINOPHIL [1]: 0 CELLS/uL
ABSOLUTE LYMPHOCYTE [1]: 12743.33 CELLS/uL
ABSOLUTE MONOCYTE [1]: 327.33 CELLS/uL
ABSOLUTE SEGMENTED NEUTROPHIL [1]: 1062.67 CELLS/uL
BASOPHIL [1]: 0%
EOSINOPHIL [1]: 0%
ERYTHROCYTE COUNT [1]: 5.27 x10E6/uL
HEMATOCRIT [1]: 32.27%
HEMOGLOBIN [1]: 13.07 G/DL
LEUKOCYTE COUNT [1]: 14.13 x10E3/uL
LYMPHOCYTE [1]: 90%
MEAN CORPUSCULAR HEMOGLOBIN [1]: 24.8 pg
MEAN CORPUSCULAR HEMOGLOBIN CONCENTRATION [1]: 40.53 G/DL
MEAN CORPUSCULAR VOLUME [1]: 61.17 fL
MONOCYTE [1]: 2.33%
NEUTROPHIL [1]: 7.67%
NUCLEATED RED BLOOD CELLS [1]: 0 /100WBC
PLATELET COUNT [1]: 1239 x10E3/uL
ALANINE AMINOTRANSFERASE [1]: 50 u/L
ALBUMIN [1]: 4.2 G/DL
ALKALINE PHOSPHATASE [1]: 452.67 u/L
ASPARTATE AMINOTRANSFERASE [1]: 79.67 u/L
BLOOD UREA NITROGEN [1]: 16.33 mg/dL
CARBON DIOXIDE [1]: 29.67 mmol/L
CHLORIDE [1]: 100.33 MEQ/L
CHOLESTEROL [1]: 68 mg/dL
CREATINE PHOSPHOKINASE [1]: 219.67 u/L
CREATININE [1]: 0.15 mg/dL
GLUCOSE [1]: 131.33 mg/dL
LACTATE DEHYDROGENASE [1]: 184 u/L
LIPASE [1]: 11 u/L
PHOSPHORUS [1]: 10.8 mg/dL
POTASSIUM [1]: 5.91 MEQ/L
SODIUM [1]: 142.03 MEQ/L
TOTAL BILIRUBIN [1]: 0.13 mg/dL
TOTAL PROTEIN [1]: 5.73 G/DL
URIC ACID [1]: 1.13 mg/dL
ABSOLUTE BASOPHIL [2]: 0 CELLS/uL
ABSOLUTE EOSINOPHIL [2]: 0 CELLS/uL
ABSOLUTE LYMPHOCYTE [2]: 9108 CELLS/uL
ABSOLUTE MONOCYTE [2]: 0 CELLS/uL
ABSOLUTE SEGMENTED NEUTROPHIL [2]: 792 CELLS/uL
BASOPHIL [2]: 0%
EOSINOPHIL [2]: 0%
ERYTHROCYTE COUNT [2]: 5.62 x10E6/uL
HEMATOCRIT [2]: 33.4%
HEMOGLOBIN [2]: 13 G/DL
LEUKOCYTE COUNT [2]: 9.9 x10E3/uL
LYMPHOCYTE [2]: 92%
MEAN CORPUSCULAR HEMOGLOBIN [2]: 23.1 pg
MEAN CORPUSCULAR HEMOGLOBIN CONCENTRATION [2]: 38.9 G/DL
MEAN CORPUSCULAR VOLUME [2]: 59.4 fL
MONOCYTE [2]: 0%
NEUTROPHIL [2]: 8%
NUCLEATED RED BLOOD CELLS [2]: 0 /100WBC
PLATELET COUNT [2]: 1418 x10E3/uL
ALANINE AMINOTRANSFERASE [2]: 36 u/L
ALBUMIN [2]: 4.1 G/DL
ALKALINE PHOSPHATASE [2]: 257 u/L
ASPARTATE AMINOTRANSFERASE [2]: 59 u/L
BLOOD UREA NITROGEN [2]: 21 mg/dL
CARBON DIOXIDE [2]: 32 mmol/L
CHLORIDE [2]: 99 MEQ/L
CHOLESTEROL [2]: 74 mg/dL
CREATINE PHOSPHOKINASE [2]: 207 u/L
CREATININE [2]: 0.14 mg/dL
GLUCOSE [2]: 142 mg/dL
LACTATE DEHYDROGENASE [2]: 151 u/L
LIPASE [2]: 10 u/L
PHOSPHORUS [2]: 10.8 mg/dL
POTASSIUM [2]: 5.22 MEQ/L
SODIUM [2]: 139.9 MEQ/L
TOTAL BILIRUBIN [2]: 0.1 mg/dL
TOTAL PROTEIN [2]: 5.4 G/DL
URIC ACID [2]: 1.3 mg/dL
ABSOLUTE BASOPHIL [3]: 0 CELLS/uL
ABSOLUTE EOSINOPHIL [3]: 0 CELLS/uL
ABSOLUTE LYMPHOCYTE [3]: 8493.67 CELLS/uL
ABSOLUTE MONOCYTE [3]: 293 CELLS/uL
ABSOLUTE SEGMENTED NEUTROPHIL [3]: 980 CELLS/uL
BASOPHIL [3]: 0%
EOSINOPHIL [3]: 0%
ERYTHROCYTE COUNT [3]: 5.59 x10E6/uL
HEMATOCRIT [3]: 33.5%
HEMOGLOBIN [3]: 13.07 G/DL
LEUKOCYTE COUNT [3]: 9.77 x10E3/uL
LYMPHOCYTE [3]: 87.67%
MEAN CORPUSCULAR HEMOGLOBIN [3]: 23.37 pg
MEAN CORPUSCULAR HEMOGLOBIN CONCENTRATION [3]: 39 G/DL
MEAN CORPUSCULAR VOLUME [3]: 59.97 fL
MONOCYTE [3]: 3%
NEUTROPHIL [3]: 9.33%
NUCLEATED RED BLOOD CELLS [3]: 0 /100WBC
PLATELET COUNT [3]: 1213 x10E3/uL
ALANINE AMINOTRANSFERASE [3]: 40.33 u/L
ALBUMIN [3]: 4.2 G/DL
ALKALINE PHOSPHATASE [3]: 309.67 u/L
ASPARTATE AMINOTRANSFERASE [3]: 58.67 u/L
BLOOD UREA NITROGEN [3]: 18.33 mg/dL
CARBON DIOXIDE [3]: 25.67 mmol/L
CHLORIDE [3]: 101 MEQ/L
CHOLESTEROL [3]: 65.33 mg/dL
CREATINE PHOSPHOKINASE [3]: 302.33 u/L
CREATININE [3]: 0.16 mg/dL
GLUCOSE [3]: 143 mg/dL
LACTATE DEHYDROGENASE [3]: 125 u/L
LIPASE [3]: 11.33 u/L
PHOSPHORUS [3]: 10.47 mg/dL
POTASSIUM [3]: 5.72 MEQ/L
SODIUM [3]: 140.6 MEQ/L
TOTAL BILIRUBIN [3]: 0.17 mg/dL
TOTAL PROTEIN [3]: 5.47 G/DL
URIC ACID [3]: 1.43 mg/dL
